Measurements as given in ChEMBL document CHEMBL1201862, “PubChem BioAssay data set” (2004).
Activity calls are given as the source filed them.

Key:
[1] = target: Estrogen receptor beta (Homo sapiens, UniProt Q92731);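 further: recombinant ER-beta bound to coactivator SRC1 peptide in presence of estradiol agonist; inhibitors block coactivator peptide binding and lower the FRET signal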
[2] = A549 cell cytotoxicity, dose response, cytotoxicity control, plate reader, cherry-pick, antagonist series (AID 743412); assay type: functional, cell-based
[3] = blockers of bursicon-stimulated LGR2 cAMP reporter – cell-based, HEK293, CRE-luciferase reporter, cherry pick, set 2, dose response (AID 743343); assay type: functional;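 further: transfected cells were stimulated with diluted bursicon conditioned medium after compound addition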
[4] = toxicity toward HepG2 liver cells – cell-based, plate reader, cherry-pick, antagonist series, cytotoxicity control, dose response (AID 743416); assay type: functional
[5] = microbe, parasite or virus in culture; assay type: functional; details: Mycobacterium tuberculosis
[6] = Luminescence Cell-Based Dose Response HTS to Identify Inhibitors of 5'UTR Stem-Loop Driven Prion Protein mRNA Translation in H4 Neuroglioblastoma Cells. [Related pubchem assays: 1827 (Project Summary), 1813 (Primary HTS)]; assay type: functional
[7] = blockade of melanocortin 4 receptor signaling – cell-based, plate reader, cherry pick, counter-screen for LGR2 antagonist project, dose response (AID 743444); assay type: functional;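 further: transfected HEK 293 cells stimulated with alpha-MSH peptide; potency of inhibitors of the alpha-MSH evoked signal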
[8] = alpha-synuclein stem-loop luciferase translation blockers – H4 neuroglioma cells, luminescence, confirmation (AID 1988); assay type: functional, cell-based
[9] = target: T1, High affinity choline transporter 1 (Homo sapiens, UniProt Q9GZV3); assay: human choline transporter blockers, potency – cell-based, 5-point CRC, membrane potential dye, dose response (AID 504840); assay type: functional
T1 sequence (Q9GZV3 whole entry): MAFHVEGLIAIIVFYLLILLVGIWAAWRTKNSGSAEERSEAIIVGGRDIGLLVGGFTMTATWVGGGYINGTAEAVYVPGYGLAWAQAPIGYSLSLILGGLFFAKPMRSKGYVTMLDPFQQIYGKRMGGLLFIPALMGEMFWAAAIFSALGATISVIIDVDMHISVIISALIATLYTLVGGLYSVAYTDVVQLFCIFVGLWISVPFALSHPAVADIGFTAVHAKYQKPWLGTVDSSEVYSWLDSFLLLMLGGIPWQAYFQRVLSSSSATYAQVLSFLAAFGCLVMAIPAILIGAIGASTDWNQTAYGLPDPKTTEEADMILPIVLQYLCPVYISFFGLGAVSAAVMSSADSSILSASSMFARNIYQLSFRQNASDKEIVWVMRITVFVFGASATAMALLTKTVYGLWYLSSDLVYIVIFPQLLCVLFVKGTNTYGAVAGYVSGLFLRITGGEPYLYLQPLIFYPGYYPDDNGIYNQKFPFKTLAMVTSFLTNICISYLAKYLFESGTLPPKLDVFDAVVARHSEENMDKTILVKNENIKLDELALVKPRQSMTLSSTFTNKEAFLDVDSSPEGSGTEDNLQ

[10] = target: Glyceraldehyde-3-phosphate dehydrogenase (Homo sapiens, UniProt P04406)
[11] = target: T2, Rac GTPase-activating protein 1 (Homo sapiens, UniProt Q9H0H5); assay: blockers of MgcRacGAP-driven Rac1 GTP hydrolysis – biochemical, ADP Hunter fluorescence, primary and confirmatory, confirmation (AID 624330); assay type: functional
T2 sequence (Q9H0H5 whole entry): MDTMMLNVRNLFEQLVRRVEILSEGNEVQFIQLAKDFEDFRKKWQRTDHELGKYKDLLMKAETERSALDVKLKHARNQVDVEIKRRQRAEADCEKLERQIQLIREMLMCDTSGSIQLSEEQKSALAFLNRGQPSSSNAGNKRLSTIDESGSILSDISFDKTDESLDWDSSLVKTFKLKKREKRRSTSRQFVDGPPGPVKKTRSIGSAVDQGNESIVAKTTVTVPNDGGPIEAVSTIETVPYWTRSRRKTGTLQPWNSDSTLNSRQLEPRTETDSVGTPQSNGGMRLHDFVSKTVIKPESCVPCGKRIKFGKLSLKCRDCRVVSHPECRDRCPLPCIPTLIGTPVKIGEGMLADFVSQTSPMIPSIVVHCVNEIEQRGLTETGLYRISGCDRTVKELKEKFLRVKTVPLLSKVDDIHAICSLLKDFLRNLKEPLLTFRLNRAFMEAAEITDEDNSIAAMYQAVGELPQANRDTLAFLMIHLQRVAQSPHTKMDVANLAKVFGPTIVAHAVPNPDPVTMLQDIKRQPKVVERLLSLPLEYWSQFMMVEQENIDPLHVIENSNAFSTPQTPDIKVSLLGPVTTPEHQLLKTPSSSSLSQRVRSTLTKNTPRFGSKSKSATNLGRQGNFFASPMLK

[12] = Luminescence Cell-Based Dose Retest to Confirm Inhibitors of Cancer Stem Cells. [Related pubchem assays (depositor defined):AID2717, AID2721]; assay type: functional; details: Homo sapiens
[13] = viability loss in HeLa cells – cytotoxicity control for MgcRacGAP inhibitor project, dose response (AID 624300); assay type: functional
[14] = test system: P388/ADR; assay: cells; assay type: functional; details: Mus musculus
[15] = test system: SN12K1; assay: cells; assay type: functional; details: Homo sapiens
[16] = HIV-1 AD8 envelope cell-cell fusion blockers – cherry-pick, dose response (AID 652062); assay type: functional, cell-based;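 further: luciferase signal from cell-cell fusion driven by HIV-1 clade B AD8 Env; potency is for inhibitors of fusion seen as a drop in luminescence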
[17] = test system: Streptococcus; assay: GAS UMAA2166 growth inhibition – luminescence, BacTiterGlo, counter-screen for streptokinase expression inhibitor project, dose response (AID 1915); assay type: functional, organism-based;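 further: potency for reduction of bacterial viability or growth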
[18] = target: T3, Heat shock factor protein 1 (Mus musculus, UniProt P38532); assay: enhancement of HSF1-driven luciferase signal – cell-based, NIH3T3, luminescence, dose retest, confirmation (AID 435004); assay type: functional;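 further: stress induced by proteasome inhibitor MG132 added 30 min after compound; luciferase reporter driven by HSF1 response element in NIH3T3 cells; actives raise luminescence as potentiators of the MG132 stress response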
T3 sequence (P38532 whole entry): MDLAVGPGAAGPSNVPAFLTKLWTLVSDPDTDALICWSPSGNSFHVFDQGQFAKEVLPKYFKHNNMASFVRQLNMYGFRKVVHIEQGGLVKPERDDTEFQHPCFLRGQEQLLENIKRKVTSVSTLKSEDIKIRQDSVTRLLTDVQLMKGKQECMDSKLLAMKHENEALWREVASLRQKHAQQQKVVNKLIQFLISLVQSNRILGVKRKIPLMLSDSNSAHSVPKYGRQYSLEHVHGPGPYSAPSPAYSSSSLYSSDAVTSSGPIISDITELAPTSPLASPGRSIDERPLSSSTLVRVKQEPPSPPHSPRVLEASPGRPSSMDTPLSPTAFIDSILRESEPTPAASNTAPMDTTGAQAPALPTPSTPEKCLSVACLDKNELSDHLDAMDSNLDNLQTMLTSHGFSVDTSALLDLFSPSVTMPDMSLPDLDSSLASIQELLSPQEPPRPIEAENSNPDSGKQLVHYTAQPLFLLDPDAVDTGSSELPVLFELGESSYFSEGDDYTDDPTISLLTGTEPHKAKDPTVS

[19] = viability of PTEN-deleted HCT116 cells – cell-based, HCT116 PTEN knockout, dose response (AID 1047); assay type: functional;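 further: HCT116 colon tumor cells with PTEN knocked out; cells exposed to compound for 60 hours before readout; potency for loss of cell viability measured by luminescence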
[20] = target: T4, Streptokinase A (Streptococcus pyogenes serotype M1, UniProt P10520); assay: viability-normalized secreted streptokinase activity reduction – plasminogen activation absorbance, OD405, dose response (AID 1914); assay type: functional, Streptococcus pyogenes M1 GAS;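 further: secreted streptokinase activity via plasminogen activation per viability signal from cell pellet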
T4 sequence (P10520 whole entry): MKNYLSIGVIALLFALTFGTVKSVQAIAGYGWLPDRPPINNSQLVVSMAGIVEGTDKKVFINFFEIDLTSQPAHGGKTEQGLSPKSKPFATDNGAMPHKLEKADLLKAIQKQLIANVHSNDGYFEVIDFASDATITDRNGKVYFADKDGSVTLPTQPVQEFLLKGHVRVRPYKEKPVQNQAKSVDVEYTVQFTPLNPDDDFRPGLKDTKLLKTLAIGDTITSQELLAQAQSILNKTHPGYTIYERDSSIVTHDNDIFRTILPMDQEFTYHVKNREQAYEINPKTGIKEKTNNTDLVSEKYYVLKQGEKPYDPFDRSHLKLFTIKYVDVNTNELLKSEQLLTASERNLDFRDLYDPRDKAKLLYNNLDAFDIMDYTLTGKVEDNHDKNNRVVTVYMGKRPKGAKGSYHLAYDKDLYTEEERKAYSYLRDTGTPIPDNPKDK

[21] = viability of HCT116 lacking mutant beta-catenin – cell-based, human colon tumor, dose response (AID 1045); assay type: functional;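 further: HCT116 colon tumor cells with beta catenin knocked out; cells exposed to compound for 60 hours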
[22] = test system: Streptococcus sp. 'group A'; assay: Streptococcus pyogenes SK(-)GAS viability under kanamycin – luminescence, BacTiterGlo, confirmation, counter-screen for streptokinase expression inhibitor project, dose response (AID 1900); assay type: functional, organism-based
[23] = target: Cytochrome P450 2C19 (Homo sapiens, UniProt P33261); assay: Cytochrome panel assay with activity outcomes. Panel member name: p450-cyp2c19 Compounds with AC50 equal or less than 10 uM are considered active; assay type: functional; details: read-out: AC50
[24] = target: T5, Cytochrome P450 1A2 (Homo sapiens, UniProt P05177);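 further: PubChem cytochrome P450 panel assay, CYP1A2 panel member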
T5 sequence (P05177 whole entry): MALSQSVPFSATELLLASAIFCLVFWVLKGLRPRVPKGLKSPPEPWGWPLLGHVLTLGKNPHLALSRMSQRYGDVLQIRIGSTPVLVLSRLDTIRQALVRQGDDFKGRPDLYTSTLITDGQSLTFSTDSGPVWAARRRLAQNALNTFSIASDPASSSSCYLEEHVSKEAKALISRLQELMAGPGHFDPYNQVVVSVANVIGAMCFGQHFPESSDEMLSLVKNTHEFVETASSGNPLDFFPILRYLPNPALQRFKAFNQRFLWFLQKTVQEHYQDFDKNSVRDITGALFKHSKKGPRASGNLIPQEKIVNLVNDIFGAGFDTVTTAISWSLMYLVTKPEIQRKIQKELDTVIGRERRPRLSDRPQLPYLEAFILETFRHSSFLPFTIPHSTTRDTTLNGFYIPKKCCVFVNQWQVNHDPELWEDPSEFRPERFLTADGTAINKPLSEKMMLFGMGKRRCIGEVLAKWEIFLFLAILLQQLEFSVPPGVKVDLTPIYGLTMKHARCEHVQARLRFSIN

Chain of Estrogen receptor beta (Q92731 whole entry): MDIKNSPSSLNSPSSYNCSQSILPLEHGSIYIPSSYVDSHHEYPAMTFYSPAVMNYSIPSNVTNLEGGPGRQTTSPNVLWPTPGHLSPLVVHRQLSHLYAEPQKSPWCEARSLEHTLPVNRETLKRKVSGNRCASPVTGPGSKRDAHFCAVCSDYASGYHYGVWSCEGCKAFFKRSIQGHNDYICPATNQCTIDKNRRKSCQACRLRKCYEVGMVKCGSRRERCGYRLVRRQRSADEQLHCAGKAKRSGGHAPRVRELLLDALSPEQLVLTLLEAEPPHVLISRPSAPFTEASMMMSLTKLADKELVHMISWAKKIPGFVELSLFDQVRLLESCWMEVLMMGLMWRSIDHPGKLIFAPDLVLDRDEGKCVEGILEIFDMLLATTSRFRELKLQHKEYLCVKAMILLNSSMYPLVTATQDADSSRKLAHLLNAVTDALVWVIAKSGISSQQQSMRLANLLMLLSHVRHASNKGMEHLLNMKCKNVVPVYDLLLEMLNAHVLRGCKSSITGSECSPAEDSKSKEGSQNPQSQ
Chain of Glyceraldehyde-3-phosphate dehydrogenase (P04406 whole entry): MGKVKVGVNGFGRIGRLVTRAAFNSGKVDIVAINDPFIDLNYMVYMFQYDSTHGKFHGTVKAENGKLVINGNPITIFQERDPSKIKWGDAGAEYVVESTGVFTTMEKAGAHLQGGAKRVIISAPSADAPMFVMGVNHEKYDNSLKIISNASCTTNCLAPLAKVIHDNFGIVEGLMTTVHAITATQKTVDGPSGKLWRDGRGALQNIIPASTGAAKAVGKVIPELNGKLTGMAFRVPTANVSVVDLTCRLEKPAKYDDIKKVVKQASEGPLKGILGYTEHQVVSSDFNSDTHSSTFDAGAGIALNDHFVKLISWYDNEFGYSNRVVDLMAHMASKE
Chain of Cytochrome P450 2C19 (P33261 whole entry): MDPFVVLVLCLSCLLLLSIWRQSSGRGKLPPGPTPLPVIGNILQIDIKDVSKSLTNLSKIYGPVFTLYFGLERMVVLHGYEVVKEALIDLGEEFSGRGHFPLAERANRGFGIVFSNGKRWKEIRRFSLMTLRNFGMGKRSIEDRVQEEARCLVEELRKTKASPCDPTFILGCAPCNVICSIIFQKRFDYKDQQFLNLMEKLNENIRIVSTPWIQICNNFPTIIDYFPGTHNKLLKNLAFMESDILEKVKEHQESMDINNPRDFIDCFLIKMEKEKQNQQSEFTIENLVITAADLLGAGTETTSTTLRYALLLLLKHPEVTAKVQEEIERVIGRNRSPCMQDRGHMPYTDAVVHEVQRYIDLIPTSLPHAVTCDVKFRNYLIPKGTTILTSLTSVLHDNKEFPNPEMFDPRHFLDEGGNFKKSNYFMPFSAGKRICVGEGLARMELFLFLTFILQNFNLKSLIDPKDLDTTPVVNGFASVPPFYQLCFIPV

Q: For `COCCCNc1nc2c([nH]1)c(=O)[nH]c(=O)n2C`, which IC50 [1] is on record?
A: The IC50 was > 50 µM (not active).

Q: Which IC50 [1] does the source give for `CCCNCC1COc2ccccc2O1` (stereo not drawn) here?
A: The IC50 was 4.1 µM (active).

Q: With `COc1ccc(-c2cc3nc(CCl)nc(O)c3s2)cc1` as the compound, how does the AC50 [2] read?
A: The AC50 was 16.8 µM (active).

Q: What about the AC50 [3] of the same compound?
A: The AC50 was 6.33 µM (active).

Q: What about the AC50 [4] of the same compound?
A: The AC50 was 17.1 µM (active).

Q: What about the CC50 [5] of the same compound?
A: Its CC50 is 6.88 µM (active).

Q: What about the EC50 [6] of the same compound?
A: Its EC50 is 11.8 µM (active).

Q: What about the AC50 [7] of the same compound?
A: Its AC50 is 8.71 µM (active).

Q: And the EC50 [8]?
A: Its EC50 is 11 µM (active).

Q: With `CCOC(=O)CN1CC23C=CC(O2)C(C(=O)Nc2cc(OC)ccc2OC)C3C1=O` (stereo not drawn) as the compound, how does the IC50 [1] read?
A: The IC50 was > 50 µM (not active).

Q: For `CCn1cc(/C=C(\NC(=O)c2ccccc2F)C(=O)NCCCn2ccnc2)c2ccccc21`, which IC50 [9] is on record?
A: Its IC50 is 14.5 µM (active).

Q: With `CN1CCN(C2=C(Cl)C(=O)N(c3ccc(Cl)nc3)C2=O)CC1` as the compound, how does the IC50 [10] read?
A: The IC50 was > 50 µM (inconclusive).

Q: Which IC50 [11] does the source give for `Cc1ccc(-c2cc(C(=O)N3CCN(c4ccc(O)cc4)CC3)c3ccccc3n2)cc1` here?
A: Its IC50 is 88 µM (active).

Q: And the AC50 [12]?
A: Its AC50 is 6.6 µM (active).

Q: What about the CC50 [13] of the same compound?
A: Its CC50 is 100 µM (active).

Q: For `O=C(Cn1ncc2c3ccccc3n(Cc3ccccc3)c2c1=O)NCCN1CCOCC1`, which IC50 [9] is on record?
A: The IC50 was 11.2 µM (active).

Q: For `O=C(OCc1nc(O)c2sccc2n1)c1ccc(Cl)s1`, which IC50 [9] is on record?
A: Its IC50 is 12.6 µM (active).

Q: Which GI50 [14] does the source give for `COC1C(OC(=O)/C=C/C=C/C=C/C=C/C(=O)O)CCC2(CO2)C1C1(C)OC1CC=C(C)C` (stereo not drawn) here?
A: Its GI50 is 13.2 µM (inactive).

Q: What about the GI50 [15] of the same compound?
A: Its GI50 is 16.1 µM (inactive).

Q: For `O=C(C[C@@H]1C[C@H]2c3cc(NC(=O)Nc4ccccc4)ccc3O[C@H]2[C@H](CO)O1)NCc1cccnc1`, which AC50 [16] is on record?
A: Its AC50 is 1.64 µM (active).

Q: With `OC(CNCc1ccco1)Cn1c2ccc(Br)cc2c2cc(Br)ccc21` (stereo not drawn) as the compound, how does the EC50 [17] read?
A: The EC50 was 13.7 µM (active).

Q: What about the AC50 [12] of the same compound?
A: Its AC50 is 3 µM (active).

Q: And the EC50 [18]?
A: Its EC50 is > 260 µM (inactive).

Q: And the EC50 [19]?
A: Its EC50 is 9.13 µM (active).

Q: What about the EC50 [20] of the same compound?
A: The EC50 was > 150 µM (not active).

Q: What about the EC50 [21] of the same compound?
A: Its EC50 is 8.59 µM (active).

Q: And the EC50 [22]?
A: The EC50 was 4.22 µM (active).

Q: With `COc1ccc(OC)c(S(=O)(=O)Nc2cccnc2)c1` as the compound, how does the IC50 [10] read?
A: Its IC50 is > 100 µM (not active).

Q: With `O=c1cc(-c2ccccc2)c2c(O)cc(O)cc2o1` as the compound, how does the IC50 [9] read?
A: The IC50 was 13.7 µM (active).

Q: Which results are given for `CN(C)CCCN1c2ccc(O)cc2Sc2ccc(Cl)cc21` [7-HYDROXYCHLORPROMAZINE]?
A: AC50 [23]: 0.794 µM (inconclusive); IC50 [11]: 11.6 µM (active); AC50 [24]: 0.631 µM (inconclusive); CC50 [13]: 84.5 µM (active)
